Values of other authors in paper PMC8609999, “A Phase I trial of talazoparib in patients with advanced hematologic malignancies” (International Journal of Hematologic Oncology, 2021).

Test system: CLL or MCL patients
Design: method as in PMID 28643365
Details: not statistically significant; cited from earlier work

SMILES: O=C(c1cc(Cc2n[nH]c(=O)c3ccccc23)ccc1F)N1CCN(C(=O)C2CC2)CC1 [olaparib]
- Overall survival in patients with ATM mutations versus those without: trend towards improved overall survival
